Reference: patent US6414035B1, “Use of polyols in combating yeast infection and polyol preparations for said use” (priority 1997, dated 2002)
Marks after values point to notes of the source that are not given here.

What was measured:
[1] = tested on: Candida isolate from AIDS patient No 1; assay: Sensitivity test of Candida isolate to antifungals; assay type: cell-based; conditions: for sensitivity of the isolate: Candida isolate from AIDS patient No 1
[2] = tested on: Candida (oral or esophageal candidiasis); assay: Open label pilot trial of dietary xylitol intake in AIDS patients with candida mucositis; assay type: in vivo, human; parameters: pain symptoms (score) / Sympt. score: scale not given here
Description: An open label, pilot trial was designed to test the effect of the strategy of dietary xylitol intake in replacement of sugar in patients with candida mucositis. AIDS patients with oral or esophageal candidiasis were selected as subjects for the study because of the frequency and the severity of candida mucositis that they usually develop. Patients with AIDS were considered eligible for the test after their oral or esophageal lesions were documented by microscopic examination of scrapings to be of Candida origin. They were free to continue on any antifungal therapy they might be receiving. Instructions were given to replace the saccharose that they normally take with coffee or tea for crystalline xylitol. Also, to avoid excess sweets like ice cream, cakes. cookies, and artificially flavored drinks that contain glucose. The following was done at baseline and thereafter every 7 days: 1. Pictures of the lesions 2. Tongue imprints in Sabouraud agar 3. Quantitative Candida cultures on unstimulated saliva (CFU/ml) 4. Pain questionnaire (numerical pain scale) 5. Weight 6. Patients kept a daily record of food and drink.

salivary Candida = conditions: diet of human test group during 8 months; cited from earlier work
Candida albicans = assay: Growth in vitro of Candida albicans in Muller Hinton broth with sweeteners (optical density 650 nm); assay type: cell-based; conditions: 10% concentration, 12 strains
Description: A test was designed to determine the effect on the growth in vitro of Candida albicans of xylitol, lactitol, sorbitol and aspartame in comparison to glucose and a non-carbohydrate control medium. The tested substances have all been used in the food industry as sweeteners. The sweetness of the substances in the above order is respectively 100%, 40%, 60% and 20.000% of the sweetness of glucose.
12 strains of Candida albicans obtained from patients with AIDS and oral candida mucositis were evaluated. The strains were inoculated on Sabouraud agar plates (20% dextrose) and incubated at room temperature for 48 hours. One colony from each plate was inoculated in Muller Hinton broth (without sweetener) and left for 18 hours at 35° C. The tubes were standardized to Mac Farland 0.5 (5×10^6 CFU/ml) and 100 μl inoculated in triplicate in spectrophotometer tubes containing 3 ml of Muller Hinton broth at final concentrations of glucose (5% and 10%); xylitol (5% and 10%); lactitol (5%, 8.3% and 10%); sorbitol (5%, 10% and 12.5%); and aspartame (0.025% and 0.05%). 3 tubes with Muller Hinton broth without carbohydrate was also inoculated to serve as controls.
Optical densities (650 nm) were determined at 0, 24 and 48 hours time. The average of three readings per time, per sweetener concentration was calculated and recorded. […]

[3] = tested on: Candida (recurrent oral candidiasis); assay: Pilot study of xylitol replacing dietary saccharose in patients with recurrent oral candidiasis; assay type: in vivo, human
Description: A pilot study was designed to test the effect of xylitol on the clinical course, Candida salivary counts, and antifungal needs of patients with recurrent oral candidiasis. The patients were instructed to replace their dietary saccharose with crystalline xylitol and to avoid excess saccharose-containing-foods and beverages.
Of 14 patients admitted to the test, 8 completed more than 14 days of follow up. The result was that all 8/8 experienced at least 70% regression of their lesions (improvement) with minimal antifungal therapy (1 nystatin tablet 500,000 U/per day); 5/8 had complete regression of the lesions (cure); and 6/8 decreased their salivary Candida counts by 2 logs.

Candida = conditions: cited from earlier work
[4] = tested on: Candida isolate from AIDS patient No 1; assay: Growth of Candida isolate on Muller Hinton agar with sugar or sugar alcohol; assay type: cell-based; conditions: 5 and 10%, FIG. 1
Method: The effect of sugar alcohols on the growth of said Candida isolate was tested on Muller Hinton agar with 5 and 10% glucose or 5 and 10% xylitol and a control without sugar.

C[C@@H]1[C@H](O)[C@@H](C)/C=C/C=C/C=C/C=C/C=C/C=C/C=C/[C@H](O[C@@H]2O[C@H](C)[C@@H](O)[C@H](N)[C@@H]2O)C[C@@H]2O[C@](O)(C[C@@H](O)C[C@@H](O)[C@H](O)CC[C@@H](O)C[C@@H](O)CC(=O)O[C@H]1C)C[C@H](O)[C@H]2C(=O)O [Amphotericin B]
sensitivity of the isolate [1]: sensitive

OC(Cn1cncn1)(Cn1cncn1)c1ccc(F)cc1F [Fluconazole]
follow up esophagoscopy ([2]; AIDS patient No 2, a month later, fluconazole p.o. for 15 days during xylitol trial): no lesions | MIC ([1]; Candida): > 256 µg/mL | sensitivity of the isolate [1]: resistant

O=C(CO)[C@@H](O)[C@H](O)[C@H](O)CO [fructose]
number of persons with salivary Candida growth (salivary Candida): slight increase

OC[C@H]1O[C@@](CO)(O[C@H]2O[C@H](CO)[C@@H](O)[C@H](O)[C@H]2O)[C@@H](O)[C@@H]1O [sucrose]
number of persons with salivary Candida growth (salivary Candida): slight increase

OC[C@@H](O)[C@H](O)[C@@H](O)CO [xylitol]
number of persons with salivary Candida growth (salivary Candida): significantly reduced | esophageal lesions ([2]; AIDS patient No 2, Candida esophagitis, two weeks after start of xylitol intake, no antifungal therapy): unchanged lesions | Sympt. score ([2]; AIDS patient No 2, day 1): 18 | Weight ([2]; AIDS patient No 2, day 1): 58,5 Kg | CFU/ml saliva ([2]; AIDS patient No 2, day 7): 0 CFU/ml | Sympt. score ([2]; AIDS patient No 2, day 7): 0 | Weight ([2]; AIDS patient No 2, day 7): 58,5 Kg | Sympt. score ([2]; AIDS patient No 2, day 15): 0 | Weight ([2]; AIDS patient No 2, day 15): 58,5 Kg | CFU/ml saliva ([2]; AIDS patient No 2, day 15, counted at 72 hours): 3,6 × 10^3** CFU/ml | Sympt. score ([2]; AIDS patient No 2, day 22): 0 | Weight ([2]; AIDS patient No 2, day 22): 57,5 Kg | CFU/ml saliva ([2]; AIDS patient No 2, day 22, counted at 72 hours, fluconazole p.o. started after two weeks): 4,5 × 10^2** CFU/ml | Sympt. score ([2]; AIDS patient No 2, day 29): 0 | Weight ([2]; AIDS patient No 2, day 29): 57,2 Kg | CFU/ml saliva ([2]; AIDS patient No 2, day 29, fluconazole p.o. started after two weeks): 0 CFU/ml | Sympt. score ([2]; AIDS patient No 2, day 36): 0 | Weight ([2]; AIDS patient No 2, day 36): 57,7 Kg | CFU/ml saliva ([2]; AIDS patient No 2, day 36, fluconazole p.o. 15 days given after two weeks): 0 CFU/ml | Sympt. score ([2]; AIDS patient No 2, day 50): 0 | Weight ([2]; AIDS patient No 2, day 50): 56,9 Kg | CFU/ml saliva ([2]; AIDS patient No 2, day 50, fluconazole p.o. 15 days given after two weeks): 0 CFU/ml | symptom-free follow-up period ([2]; AIDS patient No. 1, about 30 g crystalline xylitol daily): 80 days | Candida counts ([2]; AIDS patient No. 1, after 2.5 months): still negative | Sympt. score ([2]; AIDS patient No. 1, day 1): 18 | Weight ([2]; AIDS patient No. 1, day 1): 62 kg | CFU/mL saliva ([2]; AIDS patient No. 1, day 1, counted at 48 hours): 1×10^4 CFU/mL | Sympt. score ([2]; AIDS patient No. 1, day 8): 0 | Weight ([2]; AIDS patient No. 1, day 8): 62.6 kg | CFU/mL saliva ([2]; AIDS patient No. 1, day 8, plates held for 7 days): 0** CFU/mL | Sympt. score ([2]; AIDS patient No. 1, day 18): 0 | Weight ([2]; AIDS patient No. 1, day 18): 73.4 kg | CFU/mL saliva ([2]; AIDS patient No. 1, day 18, plates held for 7 days): 0** CFU/mL | Sympt. score ([2]; AIDS patient No. 1, day 29): 0 | Weight ([2]; AIDS patient No. 1, day 29): 73 kg | CFU/mL saliva ([2]; AIDS patient No. 1, day 29, plates held for 7 days): 0** CFU/mL | Sympt. score ([2]; AIDS patient No. 1, day 36): 0 | Weight ([2]; AIDS patient No. 1, day 36): 74.8 kg | CFU/mL saliva ([2]; AIDS patient No. 1, day 36, plates held for 7 days): 0** CFU/mL | Sympt. score ([2]; AIDS patient No. 1, day 56): 0 | Weight ([2]; AIDS patient No. 1, day 56): 75 kg | CFU/mL saliva ([2]; AIDS patient No. 1, day 56, plates held for 7 days): 0** CFU/mL | Sympt. score ([2]; AIDS patient No. 1, day 80): 0 | Weight ([2]; AIDS patient No. 1, day 80): 75.1 kg | CFU/mL saliva ([2]; AIDS patient No. 1, day 80, plates held for 7 days): 0** CFU/mL | Candida counts ([2]; AIDS patient No. 1, day seven): negative | weight gained ([2]; AIDS patient No. 1, follow-up of 80 days): 13.1 kilograms | time to disappearance of the lesions ([2]; AIDS patient No. 1, ketoconazole discontinued on day four): 1 week | improvement noticed by the patient ([2]; AIDS patient No. 1, on ketoconazole until day four): clear improvement on day four | time to recurrence of oral candidiasis after stopping the xylitol trial ([2]; AIDS patient No. 3): 4 days | pain symptoms (score) ([2]; AIDS patient No. 3, at start): 30 | saliva counts ([2]; AIDS patient No. 3, first 17 days): diminished | pain symptoms (score) ([2]; AIDS patient No. 3, in the first 17 days, 1 nystatin troche during the first five days): 8 | rank among tested compounds at reducing the growth of Candida in vitro (Candida albicans): by far the best | lesions and fungal cultures after 4 months of xylitol intake ([3]; 1 patient, previously fluconazole resistant isolate (E test)): without lesions and sterile fungal cultures | patients who decreased their salivary Candida counts by 2 logs ([3]; more than 14 days follow up): 6/8 | patients with complete regression of the lesions (cure) ([3]; more than 14 days follow up): 5/8 | patients with at least 70% regression of their lesions (improvement) ([3]; more than 14 days follow up, with minimal antifungal therapy (1 nystatin tablet 500,000 U/per day)): 8/8 | time to return to baseline after returning to saccharose intake ([3]; three patients): 3 days | Candida growth and invasion compared to controls (Candida; given instead of glucose): did not increase | invasion of gastrointestinal mucosa by Candida relative to mice receiving glucose (Candida; immunocompromised mice): five times less | scores of invasion versus control mice receiving no sugar (Candida; immunocompromised mice): not significantly different | growth of Candida isolate compared to control without sugar [4]: inhibited in a dose dependent way
